From patent US20250129018A1, “PLEUROMUTILIN DERIVATIVES CONTAINING CYCLOALKYL GROUP AND PREPARATION METHODS AND APPLICATIONS THEREOF” (priority 2023, published 2025)
≈ marks a conversion by molar mass, not a printed value.

Tests used:
Assay in all cases: MIC, two-fold serial dilution method
S. dysgalactiae-1 = format: cell-based, S. dysgalactiae equisimilis; details: S. dysgalactiae-1
Experimental: (§1) The pleuromutilin derivatives 1-4 prepared from Example 9 of the present disclosure were determined for their effect on Methicillin-resistant Staphylococcus aureus, Methicillin-resistant Staphylococcus epidermidis, standard strains of Staphylococcus aureus (S. aureus-29213 and S. aureus-25923), clinical strains 1-48 of S. aureus, Escherichia coli, S. agalactiae and S. dysgalactiae equisimilis (S. dysgalactiae-1, S. dysgalactiae-2, S. dysgalactiae-3) and minimum inhibitory concentration (MIC) using a two-fold serial dilution method, and the results were shown in Table 1, Table 2 and Table 3. The standard strains are commercially available from ATCC, and the clinical strains are preserved by Lanzhou Institute of Husbandry and Pharmaceutical Science of Chinese Academy of Agricultural Sciences (Lanzhou, Gansu, China).

S. dysgalactiae-2 = format: cell-based, S. dysgalactiae equisimilis; details: S. dysgalactiae-2
Experimental: as §1

S. dysgalactiae-3 = format: cell-based, S. dysgalactiae equisimilis; details: S. dysgalactiae-3
Experimental: as §1

S. agalactiae-1 = format: cell-based; details: S. agalactiae-1
Experimental: as §1

MRSA-337371 = format: cell-based, Methicillin-resistant Staphylococcus aureus; details: MRSA-337371
Experimental: as §1

S. aureus-29213 = format: cell-based, Staphylococcus aureus; details: S. aureus-29213
Experimental: as §1

S. aureus-25923 = format: cell-based, Staphylococcus aureus; details: S. aureus-25923
Experimental: as §1

E. coli-25922 = format: cell-based, Escherichia coli; details: E. coli-25922
Experimental: as §1

MRSE = format: cell-based, Methicillin-resistant Staphylococcus epidermidis
Experimental: as §1

| SMILES | minimum inhibitory concentration (S. dysgalactiae-1) | minimum inhibitory concentration (S. dysgalactiae-2) | minimum inhibitory concentration (S. dysgalactiae-3) | minimum inhibitory concentration (S. agalactiae-1) | minimum inhibitory concentration (MRSA-337371) | minimum inhibitory concentration (S. aureus-29213) | minimum inhibitory concentration (S. aureus-25923) | minimum inhibitory concentration (E. coli-25922) | minimum inhibitory concentration (MRSE) |
| --- | --- | --- | --- | --- | --- | --- | --- | --- | --- |
| C=CC1(C)CC(OC(=O)CSC(C)(C)CNC(=O)C2CC2)C2(C)C(C)CCC3(CCC(=O)C32)C(C)C1O (stereo not drawn) [derivative 1] | 0.031 µg/mL (≈ 0.0581 µM) | 0.031 µg/mL (≈ 0.0581 µM) | 0.031 µg/mL (≈ 0.0581 µM) | 0.031 µg/mL (≈ 0.0581 µM) | 0.031 µg/mL (≈ 0.0581 µM) | 0.031 µg/mL (≈ 0.0581 µM) | 0.031 µg/mL (≈ 0.0581 µM) | >16 µg/mL | 0.031 µg/mL (≈ 0.0581 µM) |
| C=CC1(C)CC(OC(=O)CSC(C)(C)CNC(=O)C2CCCC2)C2(C)C(C)CCC3(CCC(=O)C32)C(C)C1O (stereo not drawn) [derivative 3] | 0.125 µg/mL (≈ 0.222 µM) | 0.125 µg/mL (≈ 0.222 µM) | 0.125 µg/mL (≈ 0.222 µM) | 0.125 µg/mL (≈ 0.222 µM) | 0.25 µg/mL (≈ 0.445 µM) | 0.125 µg/mL (≈ 0.222 µM) | 0.125 µg/mL (≈ 0.222 µM) | >16 µg/mL | 0.25 µg/mL (≈ 0.445 µM) |
| C=CC1(C)CC(OC(=O)CSC(C)(C)CNC(=O)C2CCCCC2)C2(C)C(C)CCC3(CCC(=O)C32)C(C)C1O (stereo not drawn) [derivative 4] | 0.125 µg/mL (≈ 0.217 µM) | 0.125 µg/mL (≈ 0.217 µM) | 0.125 µg/mL (≈ 0.217 µM) | 0.125 µg/mL (≈ 0.217 µM) | 0.125 µg/mL (≈ 0.217 µM) | 0.125 µg/mL (≈ 0.217 µM) | 0.125 µg/mL (≈ 0.217 µM) | >16 µg/mL | 0.25 µg/mL (≈ 0.434 µM) |
